Patent publication US9694016B2 (Novartis AG, priority 2013, dated 2017)
pIC50: −log10 of the molar value. Read-outs that look alike come from different tables or passages of the source.

Biological target: b-Raf (V600E) (Homo sapiens (Human), UniProt P15056, V600E)
Conditions: read-out: b-Raf IC-50, AlphaScreen
[1] = 60 min pre-incubation, 3 hours reaction
[2] = 60 min pre-incubation, reaction 3 hours at room temperature

Sequence of b-Raf (V600E) (P15056 whole entry V600E): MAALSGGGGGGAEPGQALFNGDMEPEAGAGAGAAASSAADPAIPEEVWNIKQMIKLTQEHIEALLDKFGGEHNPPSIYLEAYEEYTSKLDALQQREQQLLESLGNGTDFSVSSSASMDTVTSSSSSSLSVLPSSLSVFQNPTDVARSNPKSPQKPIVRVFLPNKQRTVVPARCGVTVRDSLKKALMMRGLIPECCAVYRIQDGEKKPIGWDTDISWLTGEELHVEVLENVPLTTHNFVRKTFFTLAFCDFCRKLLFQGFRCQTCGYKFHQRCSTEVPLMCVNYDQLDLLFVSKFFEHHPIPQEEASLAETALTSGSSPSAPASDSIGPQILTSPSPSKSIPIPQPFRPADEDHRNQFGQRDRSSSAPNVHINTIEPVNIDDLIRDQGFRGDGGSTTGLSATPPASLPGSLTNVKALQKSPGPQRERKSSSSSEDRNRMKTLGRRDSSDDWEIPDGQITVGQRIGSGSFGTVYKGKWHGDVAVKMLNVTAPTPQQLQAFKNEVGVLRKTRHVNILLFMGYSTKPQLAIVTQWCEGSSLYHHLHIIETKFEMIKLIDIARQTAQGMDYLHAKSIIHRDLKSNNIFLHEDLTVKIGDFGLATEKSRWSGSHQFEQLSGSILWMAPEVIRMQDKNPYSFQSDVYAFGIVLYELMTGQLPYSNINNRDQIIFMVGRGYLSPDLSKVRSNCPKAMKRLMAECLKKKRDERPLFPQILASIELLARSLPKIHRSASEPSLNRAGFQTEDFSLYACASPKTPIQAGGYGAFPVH
Text: Sf9 cells co-expressing both proteins were lysed and subjected to immobilized nickel chromatography and eluted with Imidazole. A second column (StrepII binding column) was used and eluted with desthiobiotin. Protein Tags were removed using Prescission enzyme and the protein was further purified using a flowthrough step to remove tags.
Full length MEK1 with an inactivating K97R ATP binding site mutation is utilized as a RAF substrate. The MEK1 cDNA was subcloned with an N-terminal (his)6 tag into a vector for E. Coli expression. The MEK1 substrate was purified from E. Coli lysate by nickel affinity chromatography followed by anion exchange. The final MEK1 preparation was biotinylated (Pierce EZ-Link Sulfo-NHS-LC-Biotin) and concentrated.
Assay buffer: 50 mM Tris, pH 7.5, 15 mM MgCl2, 0.01% Bovine Serum Albumin (BSA), 1 mM dithiothreitol (DTT) Stop buffer: 60 mM ethylenediaminetetraacetic acid (EDTA), 0.01% Tween® 20
biotinylated Mek, kinase dead
384 well low volume assay plates (White Greiner® plates)
biotinylated Mek, Kinase dead approximately 10 nM
Pre-incubation time with compounds 60 minutes at room temperature
Reaction time 1 or 3 hours at room temperature
The plate was incubated for 60 minutes at room temperature.
The additions were carried out under dark conditions to protect the detection beads from light. A lid was placed on top of the plate and incubated for 1 hour at room temperature, then the luminescence was read on a PerkinElmer Envision instrument.

Compound	pIC50 [1]	pIC50 [2]	other results
Cc1ncc(NC(=O)c2ccnc(C(C)(C)C#N)c2)cc1-c1cc(N2CCOCC2)nc(N[C@H](C)CO)n1 [Example 747, (R)-2-(2-cyanopropan-2-yl)-N-(5-(2-((1-hydroxypropan-2-yl)amino)-6-morpholinopyrimidin-4-yl)-6-methylpyridin-3-yl)isonicotinamide]	7.72		
CCNc1nc(-c2cc(NC(=O)c3ccnc(C(C)(C)O)c3)ccc2C)cc(N2CCOC[C@@H]2C)n1 [Example 713, (S)—N-(3-(2-(ethylamino)-6-(3-methylmorpholino)pyrimidin-4-yl)-4-methylphenyl)-2-(2-hydroxypropan-2-yl)isonicotinamide]	8.60		
Cc1ccc(NC(=O)c2cccc(C(F)(F)F)c2)cc1-c1nc(N2CCOCC2)c2c(cnn2C)n1 [Example 837, N-(4-methyl-3-(1-methyl-7-morpholino-1H-pyrazolo[4,3-d]pyrimidin-5-yl)phenyl)-3-(trifluoromethyl)benzamide]	9.70		
COc1nnc(-c2cc(NC(=O)c3ccnc(C4CC4)c3)cnc2C)cc1N1CCOCC1 [Example 606, 2-cyclopropyl-N-(5-(6-methoxy-5-morpholinopyridazin-3-yl)-6-methylpyridin-3-yl)isonicotinamide]	8.46		
Cc1ncc(NC(=O)c2cncc(C(F)(F)F)c2)cc1-c1cc(N2CCOCC2)c(OCC(F)F)nn1 [Example 917, N-(5-(6-(2,2-difluoroethoxy)-5-morpholinopyridazin-3-yl)-6-methylpyridin-3-yl)-5-(trifluoromethyl)nicotinamide]		9.10	
Cc1ncc(NC(=O)c2cc(C(C)(C)O)ccn2)cc1-c1cnc(OCCO)c(N2CCOCC2)c1 [Example 972, N-(6′-(2-hydroxyethoxy)-2-methyl-5-morpholino-[3,3′-bipyridin]-5-yl)-4-(2-hydroxypropan-2-yl)picolinamide]		7.43	
Cc1ccc(NC(=O)c2ccnc(C3(C#N)CC3)c2)cc1-c1cc(NCCO)nc(N2CCOCC2)c1F [Example 1011, 2-(1-cyanocyclopropyl)-N-(3-(3-fluoro-6-((2-hydroxyethyl)amino)-2-morpholinopyridin-4-yl)-4-methylphenyl)isonicotinamide]		7.61	
CCOc1ncc(-c2cc(NC(=O)c3ccnc(C(C)(F)F)c3)ccc2C)cc1N1CCOCC1 [Example 233, 2-(1,1-difluoroethyl)-N-(3-(6-ethoxy-5-morpholinopyridin-3-yl)-4-methylphenyl)isonicotinamide]			pIC50 (Table 2, 3 hours reaction): 9.22
Cc1ccc(NC(=O)c2ccnc(C(C)(C)O)c2)cc1-c1cnc(OC(C)C)c(N2CCOCC2)c1 [Example 947, 2-(2-hydroxypropan-2-yl)-N-(3-(6-isopropoxy-5-morpholinopyridin-3-yl)-4-methylphenyl)isonicotinamide]		8.75	
CCOc1cc(-c2cc(NC(=O)c3ccnc(C(C)(C)O)c3)cnc2C)cc(N2CCOCC2)n1 [Example 1148, N-(2′-ethoxy-2-methyl-6′-morpholino-[3,4′-bipyridin]-5-yl)-2-(2-hydroxypropan-2-yl)isonicotinamide]		7.92	
Cc1ncc(NC(=O)c2ccnc(C(C)(F)F)c2)cc1-c1cc(N2CCOCC2)c(S(C)(=O)=O)nn1 [Example 920, 2-(1,1-difluoroethyl)-N-(6-methyl-5-(6-(methylsulfonyl)-5-morpholinopyridazin-3-yl)pyridin-3-yl)isonicotinamide]		8.05	
CCOc1nnc(-c2cc(NC(=O)c3cccc(S(C)(=O)=O)c3)cnc2C)cc1N1CCOCC1 [Example 618, N-(5-(6-ethoxy-5-morpholinopyridazin-3-yl)-6-methylpyridin-3-yl)-3-(methylsulfonyl)benzamide]	8.30		
Cc1ncc(NC(=O)c2cccc(C(F)(F)F)c2)cc1-c1cc(N2CCOCC2)nc(OC2CNC2)n1 [Example 776, N-(5-(2-(azetidin-3-yloxy)-6-morpholinopyrimidin-4-yl)-6-methylpyridin-3-yl)-3-(trifluoromethyl)benzamide]	4.60		
Cc1ccc(NC(=O)c2ccnc(C(C)(C)C#N)c2)cc1-c1cc(N2CCOC[C@H]2C)c(=O)n(C)n1 [Example 672, (R)-2-(2-cyanopropan-2-yl)-N-(4-methyl-3-(1-methyl-5-(3-methylmorpholino)-6-oxo-1,6-dihydropyridazin-3-yl)phenyl)isonicotinamide]	7.80		
Cc1ncc(NC(=O)c2cccc(C(F)(F)F)c2)cc1-c1cnc(N(C)CCO)c(N2CCOCC2)c1 [Example 986, N-(6′-((2-hydroxyethyl)(methyl)amino)-2-methyl-5′-morpholino-[3,3′-bipyridin]-5-yl)-3-(trifluoromethyl)benzamide]		9.08	
Cc1ccc(NC(=O)c2cccc(C(F)F)c2)cc1-c1nc2c(c(N3CCOCC3)n1)S(=O)(=O)CC2 [Example 854, 3-(difluoromethyl)-N-(4-methyl-3-(4-morpholino-5,5-dioxido-6,7-dihydrothieno[3,2-d]pyrimidin-2-yl)phenyl)benzamide]		9.10	
Cc1ncc(NC(=O)c2cccc(C(F)(F)F)c2)cc1-c1cc(N2CCOCC2)n2nccc2n1 [Example 793]	8.89		

Compound	pIC50 [1]	pIC50 [2]	other results
Cc1ncc(NC(=O)c2ccnc(C(C)C)c2)cc1-c1ccnc(N2CCOCC2)c1 [Example 1136, 2-isopropyl-N-(2-methyl-2′-morpholino-[3,4′-bipyridin]-5-yl)isonicotinamide]		8.30	
Cc1ccc(NC(=O)c2ccc(C(O)CO)c(C(F)(F)F)c2)cc1-c1cc(N2CCOCC2)c(=O)n(C)c1 (stereo not drawn) [Example 460, 4-(1,2-dihydroxyethyl)-N-(4-methyl-3-(1-methyl-5-morpholino-6-oxo-1,6-dihydropyridin-3-yl)phenyl)-3-(trifluoromethyl)benzamide]	7.80		
Cc1c(-c2nc3c(c(N4CCOCC4)n2)CS(=O)(=O)C3)cc(NC(=O)c2cccc(C(F)(F)F)c2)c[n+]1[O-] [Example 887, 2-methyl-3-(4-morpholino-6,6-dioxido-5,7-dihydrothieno[3,4-d]pyrimidin-2-yl)-5-(3-(trifluoromethyl)benzamido)pyridine 1-oxide]		5.89	
Cc1ccc(NC(=O)c2ccnc(C(C)(C)F)c2)cc1-c1cc(N2CCOC(C)(C)C2)c(=O)n(C)n1 [Example 665, N-(3-(5-(2,2-dimethylmorpholino)-1-methyl-6-oxo-1,6-dihydropyridazin-3-yl)-4-methylphenyl)-2-(2-fluoropropan-2-yl)isonicotinamide]	8.17		
Cc1ncc(NC(=O)c2ccnc(C(C)(C)C#N)c2)cc1-c1cncc(N2CCOCC2)c1 [Example 297, 2-(2-cyanopropan-2-yl)-N-(2-methyl-5′-morpholino-[3,3′-bipyridin]-5-yl)isonicotinamide]			pIC50 (Table 2, 3 hours reaction): 7.73
Cc1ccc(NC(=O)c2cnnc(C(F)(F)F)c2)cc1-c1cc(N2CCOCC2)n(C)c(=O)c1 [Example 495, N-(4-methyl-3-(1-methyl-6-morpholino-2-oxo-1,2-dihydropyridin-4-yl)phenyl)-6-(trifluoromethyl)pyridazine-4-carboxamide]	8.35		
Cc1ncc(NC(=O)c2cnnc(C(F)(F)F)c2)cc1-c1cnc(Cl)c(N2CCOCC2)c1 [Example 292, N-(6′-chloro-2-methyl-5′-morpholino-[3,3′-bipyridin]-5-yl)-6-(trifluoromethyl)pyridazine-4-carboxamide]			pIC50 (Table 2, 3 hours reaction): 8.42
Cc1ncc(NC(=O)c2ccnc(C3CC3)c2)cc1-c1cc(C2COCCO2)nc(N2CCOCC2)c1 (stereo not drawn) [Example 1169, N-(2′-(1,4-dioxan-2-yl)-2-methyl-6′-morpholino-[3,4′-bipyridin]-5-yl)-2-cyclopropylisonicotinamide]		8.52	
COc1ncc(-c2cc(NC(=O)c3ccnc(C4(C#N)CC4)c3)cnc2C)cc1N1CCOCC1 [Example 283, 2-(1-cyanocyclopropyl)-N-(6′-methoxy-2-methyl-5-morpholino-[3,3′-bipyridin]-5-yl)isonicotinamide]			pIC50 (Table 2, 3 hours reaction): 8.22
COc1nnc(-c2cc(C(=O)Nc3ccnc(C(C)(F)F)c3)ccc2C)cc1N1CCOCC1 [Example 1019, N-(2-(1,1-difluoroethyl)pyridin-4-yl)-3-(6-methoxy-5-morpholinopyridazin-3-yl)-4-methylbenzamide]		8.95	
Cc1ccc(NC(=O)c2ccnc(C(C)(C)C#N)c2)cc1-c1nc(N2CCOCC2)c2c(cnn2C)n1 [Example 861, 2-(2-cyanopropan-2-yl)-N-(4-methyl-3-(1-methyl-7-morpholino-1H-pyrazolo[4,3-d]pyrimidin-5-yl)phenyl)isonicotinamide]		8.60	
Cn1cc(-c2cc(NC(=O)c3cccc(C(F)F)c3)ccc2C#N)cc(N2CCOCC2)c1=O [Example 420, N-(4-cyano-3-(1-methyl-5-morpholino-6-oxo-1,6-dihydropyridin-3-yl)phenyl)-3-(difluoromethyl)benzamide]			pIC50 (Table 2, 3 hours reaction): 5.44
Cc1ccc(NC(=O)c2ccnc(S(C)(=O)=O)c2)cc1-c1cc(N2CCOCC2)nc(N2CC(O)C2)c1 [Example 1097, N-(3-(2-(3-hydroxyazetidin-1-yl)-6-morpholinopyridin-4-yl)-4-methylphenyl)-2-(methylsulfonyl)isonicotinamide]		8.48	
Cc1ccc(NC(=O)c2ccnc(C(C)C)c2)cc1-c1cc(N2CCOCC2)nc(N2CC(O)C2)n1 [Example 771, N-(3-(2-(3-hydroxyazetidin-1-yl)-6-morpholinopyrimidin-4-yl)-4-methylphenyl)-2-isopropylisonicotinamide]	8.60		
Cn1cc(-c2cc(NC(=O)c3cccc(C(F)(F)F)c3)ccc2C#N)cc(N2CCOCC2)c1=O [Example 411, N-(4-cyano-3-(1-methyl-5-morpholino-6-oxo-1,6-dihydropyridin-3-yl)phenyl)-3-(trifluoromethyl)benzamide]			pIC50 (Table 2, 3 hours reaction): 5.51
Cc1ncc(NC(=O)c2ccnc(C(C)(F)F)c2)cc1-c1cc(NCCO)nc(N2CCOCC2)c1 [Example 1041, 2-(1,1-difluoroethyl)-N-(2′-((2-hydroxyethyl)amino)-2-methyl-6′-morpholino-[3,4′-bipyridin]-5-yl)isonicotinamide]		8.24	
